Results: ChEMBL document CHEMBL4007388, “Synthesis and antiproliferative activity of monocationic arylthiophene derivatives” (Eur J Med Chem, 2017)

Columns and labels:
[1] = test system: SNB-75; test: Growth inhibition of human SNB75 cells incubated for 48 hrs by sulforhodamine B assay; type: functional; conditions: SNB-75, 48 h
[2] = test system: KM12; test: Growth inhibition of human KM12 cells incubated for 48 hrs by sulforhodamine B assay; type: functional; conditions: KM12, 48 h
[3] = test system: NCI-H460; test: Growth inhibition of human NCI-H460 cells incubated for 48 hrs by sulforhodamine B assay; type: functional; conditions: NCI-H460, 48 h
[4] = test system: SF-539; test: Growth inhibition of human SF539 cells incubated for 48 hrs by sulforhodamine B assay; type: functional; conditions: SF-539, 48 h
[5] = test system: HCT-116; test: Growth inhibition of human HCT116 cells incubated for 48 hrs by sulforhodamine B assay; type: functional; conditions: HCT-116, 48 h
[6] = test system: M14; test: Growth inhibition of human M14 cells incubated for 48 hrs by sulforhodamine B assay; type: functional; conditions: M14, 48 h
[7] = test system: RPMI-8226; test: Growth inhibition of human RPMI8226 cells incubated for 48 hrs by sulforhodamine B assay; type: functional; conditions: RPMI-8226, 48 h
[8] = test system: K562; test: Growth inhibition of human K562 cells incubated for 48 hrs by sulforhodamine B assay; type: functional; conditions: K562, 48 h
[9] = test system: HT-29; test: Growth inhibition of human HT-29 cells incubated for 48 hrs by sulforhodamine B assay; type: functional; conditions: HT-29, 48 h
[10] = test system: Malme-3M; test: Growth inhibition of human MALME-3M cells incubated for 48 hrs by sulforhodamine B assay; type: functional
[11] = test system: PC-3; test: Growth inhibition of human PC3 cells incubated for 48 hrs by sulforhodamine B assay; type: functional; conditions: PC-3, 48 h
[12] = test system: OVCAR-3; test: Growth inhibition of human OVCAR3 cells incubated for 48 hrs by sulforhodamine B assay; type: functional; conditions: OVCAR-3, 48 h
[13] = test system: SNB-19; test: Growth inhibition of human SNB19 cells incubated for 48 hrs by sulforhodamine B assay; type: functional; conditions: SNB-19, 48 h
[14] = test system: HOP-62; test: Growth inhibition of human HOP62 cells incubated for 48 hrs by sulforhodamine B assay; type: functional; conditions: HOP-62, 48 h
[15] = test system: RXF 393; test: Growth inhibition of human RXF393 cells incubated for 48 hrs by sulforhodamine B assay; type: functional; conditions: RXF 393, 48 h
[16] = test system: NCI/ADR-RES; test: Growth inhibition of human NCI/ADR-RES cells incubated for 48 hrs by sulforhodamine B assay; type: functional
[17] = test system: 786-0; test: Growth inhibition of human 786-O cells incubated for 48 hrs by sulforhodamine B assay; type: functional; conditions: 786-0, 48 h
[18] = test system: MOLT-4; test: Growth inhibition of human MOLT4 cells incubated for 48 hrs by sulforhodamine B assay; type: functional; conditions: MOLT-4, 48 h
[19] = test system: SR; test: Growth inhibition of human SR cells incubated for 48 hrs by sulforhodamine B assay; type: functional
[20] = test system: HL-60(TB); test: Growth inhibition of human HL-60(TB) cells incubated for 48 hrs by sulforhodamine B assay; type: functional; conditions: HL-60, 48 h
[21] = test system: SW-620; test: Growth inhibition of human SW620 cells incubated for 48 hrs by sulforhodamine B assay; type: functional; conditions: SW-620, 48 h
[22] = test system: DU-145; test: Growth inhibition of human DU145 cells incubated for 48 hrs by sulforhodamine B assay; type: functional; conditions: DU-145, 48 h
[23] = test system: SK-MEL-28; test: Growth inhibition of human SK-MEL-28 cells incubated for 48 hrs by sulforhodamine B assay; type: functional; conditions: SK-MEL-28, 48 h
[24] = test system: CCRF-CEM; test: Growth inhibition of human CCRF-CEM cells incubated for 48 hrs by sulforhodamine B assay; type: functional
[25] = test system: OVCAR-5; test: Growth inhibition of human OVCAR5 cells incubated for 48 hrs by sulforhodamine B assay; type: functional; conditions: OVCAR-5, 48 h
[26] = test system: HCC 2998; test: Growth inhibition of human HCC2998 cells incubated for 48 hrs by sulforhodamine B assay; type: functional; conditions: HCC 2998, 48 h
[27] = test system: LOX IMVI; test: Growth inhibition of human LOXIMVI cells incubated for 48 hrs by sulforhodamine B assay; type: functional
[28] = Antioxidant activity assessed as superoxide dismutase-like activity by measuring inhibition of superoxide radical anion production at 2 uM by NBT reduction assay relative to control; type: functional
[29] = test system: BT-549; test: Growth inhibition of human BT549 cells incubated for 48 hrs by sulforhodamine B assay; type: functional; conditions: BT-549, 48 h
[30] = test system: Escherichia coli; test: Induction of Escherichia coli genomic DNA cleavage after 1 hr by agarose gel electrophoresis method
[31] = test system: SK-OV-3; test: Growth inhibition of human SKOV3 cells incubated for 48 hrs by sulforhodamine B assay; type: functional; conditions: SK-OV-3, 48 h
[32] = Growth inhibition of human NCI60 cells at 10 uM after 48 hrs by SRB assay relative to control; values are per cent of control; conditions: NCI60, 48 h
[33] = test system: COLO 205; test: Growth inhibition of human COLO205 cells incubated for 48 hrs by sulforhodamine B assay; type: functional; conditions: COLO 205, 48 h
[34] = test system: MDA-MB-435; test: Growth inhibition of human MDA-MB-435 cells incubated for 48 hrs by sulforhodamine B assay; type: functional; conditions: MDA-MB-435, 48 h
[35] = test system: CAKI-1; test: Growth inhibition of human Caki1 cells incubated for 48 hrs by sulforhodamine B assay; type: functional; conditions: CAKI-1, 48 h
[36] = test system: TK-10; test: Growth inhibition of human TK10 cells incubated for 48 hrs by sulforhodamine B assay; type: functional; conditions: TK-10, 48 h
[37] = test system: U-251; test: Growth inhibition of human U251 cells incubated for 48 hrs by sulforhodamine B assay; type: functional; conditions: U-251, 48 h
[38] = test system: UACC-62; test: Growth inhibition of human UACC62 cells incubated for 48 hrs by sulforhodamine B assay; type: functional; conditions: UACC-62, 48 h
[39] = test system: SN12C; test: Growth inhibition of human SN12C cells incubated for 48 hrs by sulforhodamine B assay; type: functional
[40] = test system: NCI-H226; test: Growth inhibition of human NCI-H226 cells incubated for 48 hrs by sulforhodamine B assay; type: functional; conditions: NCI-H226, 48 h
[41] = test system: OVCAR-4; test: Growth inhibition of human OVCAR4 cells incubated for 48 hrs by sulforhodamine B assay; type: functional; conditions: OVCAR-4, 48 h
[42] = test system: WISH; test: Cytotoxicity against human WISH cells assessed as reduction in cell viability after 24 hrs by MTT assay; type: cell-based
[43] = test system: Hs-578T; test: Growth inhibition of human Hs 578T cells incubated for 48 hrs by sulforhodamine B assay; type: functional
[44] = species: Homo sapiens; test: Inhibition of PTK in human MCF7 cells at 1 uM preincubated for 2 hrs followed by poly-Glu-Tyr substrate addition by ELISA relative to control; type: cell-based
[45] = test system: UACC-257; test: Growth inhibition of human UACC257 cells incubated for 48 hrs by sulforhodamine B assay; type: functional; conditions: UACC-257, 48 h
[46] = test system: SK-MEL-5; test: Growth inhibition of human SK-MEL-5 cells incubated for 48 hrs by sulforhodamine B assay; type: functional; conditions: SK-MEL-5, 48 h
[47] = test system: ACHN; test: Growth inhibition of human ACHN cells incubated for 48 hrs by sulforhodamine B assay; type: functional
[48] = test system: NCI-H522; test: Growth inhibition of human NCI-H522 cells incubated for 48 hrs by sulforhodamine B assay; type: functional; conditions: NCI-H522, 48 h

Compound: COc1cc(OC)cc(-c2ccc(-c3ccc(C(=N)N)c(F)c3)s2)c1
- GI50 [1]: 1.3 µM
- GI50 [2]: 0.352 µM
- GI50 [3]: 0.195 µM
- GI50 [4]: 0.165 µM
- GI50 [5]: 0.173 µM
- GI50 [6]: 0.184 µM
- GI50 [7]: 0.246 µM
- GI50 [8]: 0.262 µM
- GI50 [9]: 0.267 µM
- GI50 [10]: 0.195 µM
- GI50 [11]: 1.3 µM
- GI50 [12]: 0.815 µM
- GI50 [13]: 1.03 µM
- GI50 [14]: 1.61 µM
- GI50 [15]: 0.449 µM
- GI50 [16]: 1.59 µM
- GI50 [17]: 0.174 µM
- GI50 [18]: 0.326 µM
- GI50 [19]: 0.224 µM
- GI50 [20]: 0.229 µM
- GI50 [21]: 0.212 µM
- GI50 [22]: 0.426 µM
- GI50 [23]: 0.176 µM
- GI50 [24]: 0.306 µM
- GI50 [25]: 0.207 µM
- GI50 [26]: 0.207 µM
- GI50 [27]: 0.196 µM
- inhibition [28]: 55.5%
- GI50 [29]: 1.37 µM
- Activity [30]: Dose-dependent effect
- GI50 [31]: 1.64 µM
- growth percent at 10 µM [32]: -77.8%
- GI50 [33]: 0.208 µM
- GI50 [34]: 0.194 µM
- GI50 [35]: 0.233 µM
- GI50 [36]: 1.78 µM
- GI50 [37]: 0.198 µM
- GI50 [38]: 1.44 µM
- GI50 [39]: 0.712 µM
- GI50 [40]: 1.73 µM
- GI50 [41]: 0.361 µM
- IC50 [42]: 115 µM
- GI50 [43]: 1.47 µM
- inhibition [44]: 74%
- GI50 [45]: 1.85 µM
- GI50 [46]: 0.956 µM
- GI50 [47]: 0.181 µM
- GI50 [48]: 1.2 µM

Compound: COc1ccc(-c2ccc(-c3ccc(C(=N)N)c(F)c3)s2)cc1
- GI50 [1]: 10.7 µM
- GI50 [2]: 3.16 µM
- GI50 [3]: 2.43 µM
- GI50 [4]: 8.96 µM
- GI50 [5]: 3.04 µM
- GI50 [6]: 1.9 µM
- GI50 [7]: 2.51 µM
- GI50 [8]: 2.66 µM
- GI50 [9]: 2.79 µM
- GI50 [10]: 2.15 µM
- GI50 [11]: 4.05 µM
- GI50 [12]: 9.77 µM
- GI50 [13]: 9.44 µM
- GI50 [14]: 10.4 µM
- GI50 [15]: 4.68 µM
- GI50 [16]: 10.1 µM
- GI50 [17]: 3.93 µM
- GI50 [18]: 3.26 µM
- GI50 [19]: 3.17 µM
- GI50 [20]: 2.19 µM
- GI50 [21]: 1.92 µM
- GI50 [22]: 6.25 µM
- GI50 [23]: 2.31 µM
- GI50 [24]: 3.11 µM
- GI50 [25]: 4.98 µM
- GI50 [26]: 1.85 µM
- GI50 [27]: 2.23 µM
- inhibition [28]: 55%
- GI50 [29]: 5.9 µM
- Activity [30]: Dose-dependent effect
- GI50 [31]: 9.21 µM
- growth percent at 10 µM [32]: -80.5%
- GI50 [33]: 1.78 µM
- GI50 [34]: 1.83 µM
- GI50 [35]: 3.94 µM
- GI50 [36]: 4.33 µM
- GI50 [37]: 2.92 µM
- GI50 [38]: 1.82 µM
- GI50 [39]: 5.97 µM
- GI50 [40]: 14.4 µM
- GI50 [41]: 6.42 µM
- IC50 [42]: 112 µM
- GI50 [43]: 4.82 µM
- inhibition [44]: 66%
- GI50 [45]: 1.84 µM
- GI50 [46]: 2.67 µM
- GI50 [47]: 4.24 µM
- GI50 [48]: 3.73 µM
